Key:
[1] = Octanol-water partition coefficient, log P of the compound; assay type: physicochemical
[2] = biological target: Serotransferrin (Homo sapiens) (UniProt P02787); test: Reduction of cellular iron uptake from 59Fe]transferrin in human SK-N-MC cells at 25 uM after 3 hrs relative to control; assay type: cell-based; parameters: scale not given: the % may be the effect or the level left
[3] = biological target: Serotransferrin (Homo sapiens) (UniProt P02787); test: Induction of iron removal from 59Fe]transferrin assessed as iron release after 3 hrs relative to control; parameters: concentration or dose not given beside the values
SK-N-MC [4] = test: cells; conditions: Homo sapiens, 72 h
Description: Antiproliferative activity against human SK-N-MC cells after 72 hrs by MTT assay

SK-N-MC [5] = test: Induction of iron mobilization in 59Fe]transferrin labeled human SK-N-MC cells assessed as iron release at 25 uM after 3 hrs by gamma scintillation counter; assay type: functional
SK-N-MC [6] = test: Cytotoxicity against 59Fe]transferrin prelabeled human SK-N-MC cells assessed as cell viability at 25 uM after 3 hrs; assay type: cell-based

Sequence of Serotransferrin (Homo sapiens) (P02787 whole entry): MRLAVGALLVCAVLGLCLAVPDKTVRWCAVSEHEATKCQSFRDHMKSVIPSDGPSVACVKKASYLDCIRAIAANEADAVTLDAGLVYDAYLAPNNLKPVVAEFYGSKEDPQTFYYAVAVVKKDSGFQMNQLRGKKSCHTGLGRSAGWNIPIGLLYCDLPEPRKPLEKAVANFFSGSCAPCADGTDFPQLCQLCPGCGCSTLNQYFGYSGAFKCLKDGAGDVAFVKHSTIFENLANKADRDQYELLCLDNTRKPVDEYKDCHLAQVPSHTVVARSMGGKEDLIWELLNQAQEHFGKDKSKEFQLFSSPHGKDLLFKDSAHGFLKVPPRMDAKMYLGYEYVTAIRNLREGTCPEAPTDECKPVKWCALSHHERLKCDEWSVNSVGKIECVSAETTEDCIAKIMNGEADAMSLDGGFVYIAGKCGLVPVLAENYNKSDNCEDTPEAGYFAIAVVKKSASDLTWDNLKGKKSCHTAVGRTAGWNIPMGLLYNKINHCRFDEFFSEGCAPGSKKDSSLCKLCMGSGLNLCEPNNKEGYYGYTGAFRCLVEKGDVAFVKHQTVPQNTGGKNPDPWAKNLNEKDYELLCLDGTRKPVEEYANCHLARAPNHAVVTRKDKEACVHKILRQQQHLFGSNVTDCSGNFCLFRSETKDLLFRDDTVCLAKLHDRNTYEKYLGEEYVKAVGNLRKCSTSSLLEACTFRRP

SMILES	logP [1]	Activity [2]	Activity [3]	IC50 (SK-N-MC [4])	Activity (SK-N-MC [5])	Activity (SK-N-MC [6])
C/C(=N\NC(=S)N(C)C)c1ccccn1	1.8	4%	2.7%	1 nM	–	–
CCNC(=S)N/N=C(\c1ccccc1)c1ccccn1	–	–	3.1%	3 nM	–	–
CNC(=S)N/N=C(\C)c1ccccn1	2.7	4%	1.8%	11 nM	–	–
O=C(N/N=C/c1c(O)ccc2ccccc12)c1ccncc1	–	–	–	500 nM	–	–
Cc1ncc(CO)c(/C=N/NC(=O)c2ccncc2)c1O [PYRIDOXAL ISONICOTINOYL HYDRAZONE]	–	11%	–	–	37%	–
CN(C)C(=S)NN=C(c1ccccn1)c1ccccn1	–	7%	2.9%	–	27%	–
NC(=S)NN=C(c1ccccn1)c1ccccn1	–	–	1.6%	–	–	–
Cc1c(O)c(=O)ccn1C	–	–	20%	–	–	–
NC(=S)N/N=C(\c1ccccc1)c1ccccn1	–	–	2%	–	–	–
C=CCNC(=S)N/N=C(\C)c1ccccn1	1.76	4%	1.7%	1 nM	–	–
C/C(=N\NC(N)=S)c1ccccn1	1.52	4%	1%	3530 nM	–	–
CC(=O)N(O)CCCCCNC(=O)CCC(=O)N(O)CCCCCNC(=O)CCC(=O)N(O)CCCCCN [DEFEROXAMINE]	–	83%	14.2%	7350 nM	13%	–
C/C(=N\NC(=S)Nc1ccccc1)c1ccccn1	2.99	35%	0.9%	1 nM	33%	Non-toxic
CCNC(=S)N/N=C(\C)c1ccccn1	1.52	4%	2.1%	2 nM	–	–
